We go through two compounds from patent publication US20230172915A1, “DHODH INHIBITOR FOR THE TREATMENT OF COVID-19” (priority 2020, published 2023).

SMILES strings stand for the structures.

One assay deals with T1, DHODH (Homo sapiens, UniProt Q02127).
T1 construct: from tissue; host or cells: isolated mitochondria / mitochondria extracts
Kind of assay: Isolated mitochondria colorimetric assay of DHODH activity. Type of assay: biochemical. To be noted: 0.1, 1, 10, 100, 1000, or 1000 nM. The source says: FIG. 3 is a plot of % inhibition vs compound concentration in nM, illustrating the results of a colorimetric assay of inhibition of DHODH activity in vitro in mitochondria extracts by PTC299, brequinar, and teriflunomide, compared to the negative control, PTC-371.
The latter two compounds are known DHODH inhibitors.

Assay [1] deals with HT1080 human fibrosarcoma cells. Kind of assay: De novo pyrimidine nucleotide synthesis from 15N-glutamine in HT1080 cells. Type of assay: cell-based. To be noted: 100 nM. From the text:
In this Example, fibrosarcoma cells were used to investigate the effect of PTC299 on pyrimidine nucleotide synthesis. Glutamine is an upstream precursor of dihydroorotic acid in the de novo pyrimidine synthesis pathway, as illustrated in FIG. 1.

A further assay relates to SARS-CoV-2 USA-WA1/2020. Put plainly: PTC299 and remdesivir alone or combined, SARS-CoV-2 titer in Vero cells (TCID50). It counts as cell-based. Conditions: remdesivir 5 µM, 24 hours post infection.

T1 sequence (Q02127 whole entry, species assumed): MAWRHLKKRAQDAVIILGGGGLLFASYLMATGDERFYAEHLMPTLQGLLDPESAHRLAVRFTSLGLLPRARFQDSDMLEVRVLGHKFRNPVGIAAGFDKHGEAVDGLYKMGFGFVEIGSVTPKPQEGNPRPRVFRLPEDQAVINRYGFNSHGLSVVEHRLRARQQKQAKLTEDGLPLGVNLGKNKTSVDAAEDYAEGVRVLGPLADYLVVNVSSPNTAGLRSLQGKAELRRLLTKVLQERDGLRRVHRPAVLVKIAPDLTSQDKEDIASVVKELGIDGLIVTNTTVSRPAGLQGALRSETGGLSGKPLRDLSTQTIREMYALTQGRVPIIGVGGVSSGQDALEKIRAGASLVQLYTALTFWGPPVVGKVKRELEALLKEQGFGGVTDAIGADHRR

Regarding `COc1ccc(C2c3[nH]c4ccc(Cl)cc4c3CCN2C(=O)Oc2ccc(Cl)cc2)cc1` (stereo not drawn) [PTC-371, reference compound], the “inhibition of DHODH activity” value at DHODH was “no inhibition was observed”. In assay [1], the “suppression of de novo pyrimidine nucleotide biosynthesis” value was “did not suppress de novo pyrimidine nucleotide biosynthesis”.

`CCC(CC)COC(=O)[C@H](C)N[P@](=O)(OC[C@H]1O[C@@](C#N)(c2ccc3c(N)ncnn23)[C@H](O)[C@@H]1O)Oc1ccccc1` [Remdesivir, remdesivir, reference compound]: the “reduction in titer relative to untreated control” value with SARS-CoV-2 USA-WA1/2020 amounted to 86%.
